Test results: patent US20090318446A1, “4-(1H-Indol-3-yl)-Pyrimidin-2-Ylamine Derivatives and Their Use in Therapy” (Cyclacel Limited, priority 2005, published 2009)

Assays:
CDK7/cyclin H = CDK7/cyclin H (Homo sapiens, UniProt P50613); experiment: CDK 7 assay; assay type: biochemical; settings: Table 3; read-out: Kinase inhibition CDK7H
Experimental: CTD peptide substrate (biotinyl-Ahx-(Tyr-Ser-Pro-Thr-Ser-Pro-Ser)4-NH2; 1-2 mg/mL) and recombinant human CDK7/cyclin H, CDK9/cyclin TI, or CDK9/cyclin K (0.5-2 μg) were incubated for 45 min at 30° C. in the presence of varying amounts of test compound in 20 mM MOPS pH 7.2, 25 mM β-glycerophosphate, 5 mM EGTA, 1 mM DTT, 1 mM sodium vanadate, 15 mM MgCl2, and 100 μM ATP (containing a trace amount of ^32PγATP) in a total volume of 25 μL in a 96-well microtiter plate. The reaction was stopped by placing the plate on ice for 2 min. Avidin (50 μg) was added to each well, and the plate was incubated at room temp for 30 min. The samples were transferred to a 96-well P81 filter plate, and washed (4×200 μL per well) with 75 mM phosphoric acid. Microscint 40 scintillation liquid (50 μL) was added to each well, and the amount of ^32P incorporation for each sample was measured using a Packard Topcount microplate scintillation counter.

aurora-B = biological target: T1, aurora-B (Homo sapiens, UniProt Q96GD4); experiment: Aurora-B (human) kinase assay; assay type: biochemical; settings: Table 3; read-out: Kinase inhibition Aurora B
T1 construct: purchased Upstate, Dundee, UK
T1 sequence (Q96GD4 whole entry): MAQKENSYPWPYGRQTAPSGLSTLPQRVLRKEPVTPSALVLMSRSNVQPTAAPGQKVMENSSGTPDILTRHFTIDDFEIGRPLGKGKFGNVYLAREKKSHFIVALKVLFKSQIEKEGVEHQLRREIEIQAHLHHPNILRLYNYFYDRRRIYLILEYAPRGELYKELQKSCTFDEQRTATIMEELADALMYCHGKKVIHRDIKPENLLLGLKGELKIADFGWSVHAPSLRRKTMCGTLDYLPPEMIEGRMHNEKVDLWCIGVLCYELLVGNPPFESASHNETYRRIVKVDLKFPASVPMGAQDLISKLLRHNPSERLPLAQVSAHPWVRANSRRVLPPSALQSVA
Experimental: This was achieved by measurement of incorporation of radioactive phosphate from ATP into Kemptide substrate (LRRASLG), upon phosphorylation by commercially obtained aurora-B (human, Upstate, Dundee, UK). Assays were performed using 96-well plates and appropriate assay buffers (20 mM Tris, 25 mM β-glycerophosphate, 5 mM EGTA, 1 mM DTT, 1 mM sodium vanadate, pH 7.5), into which were added 75 ng of pre-activated enzyme with 500 μM substrate (Kemptide). The reactions were initiated by addition of MgATP mix (15 mM MgCl2+100 μM ATP with 15-25 kBq per well of [γ-^32P]-ATP) and mixtures incubated for 60 min at 30° C. Reactions were stopped by addition of an equal volume of 75 mM aq orthophosphoric acid, followed by filtration through p81 filterplates (Whatman Polyfiltronics, Kent, UK). After washing 4 times with 75 mM aq orthophosphoric acid, plates were dried, scintillant added and incorporated radioactivity measured in a scintillation counter (TopCount, Packard Instruments, Pangbourne, Berks, UK). Compounds for kinase assay were made up as 10 mM stocks in DMSO and diluted into 10% DMSO in assay buffer. Data was analysed using curve-fitting software (XLfit version 4.0.2, IDBS, Guildford, Surrey, UK) to determine IC50 values (concentration of test compound which inhibits kinase activity by 50%).
Aurora-B (human, Upstate, Dundee, UK) was pre-activated immediately prior to kinase assay in appropriate buffers (20 mM Tris, 25 mM β-glycerophosphate, 5 mM EGTA, 1 mM DTT, 1 mM sodium vanadate, pH 7.5) by incubating 15 μg of enzyme with 4 μg INCENP (Upstate, Dundee, UK) in the presence of MgATP mix (15 mM MgCl2+100 μM ATP) for 15 min at 30° C.

A2780 = experiment: MTT cytotoxicity assay, A2780; assay type: cell-based; settings: Homo sapiens, after incubation
Experimental: (§1) The compounds of the invention were subjected to a standard cellular proliferation assay using human tumour cell lines obtained from the ATCC (American Type Culture Collection, 10801 University Boulevard, Manessas, Va. 20110-2209, USA). […] C.; Thomas, D. G.; Darling, J. L. Anti Cancer Drugs 1996, 7, 331-8; Loveland, B. E.; Johns, T. G.; Mackay, 1. R.; Vaillant, F.; Wang, Z. X.; Hertzog, P. J. Biochemistry International 1992, 27, 501-10). In short: cells were seeded into 96-well plates according to doubling time and incubated overnight at 37° C. […] MTT was made up as a stock of 5 mg/mL in cell media and filter-sterilised. Media was removed from cells followed by a wash with 200 μL PBS. MTT solution was then added at 20 μL per well and incubated in the dark at 37° C. for 4 h MTT solution was removed and cells again washed with 200 μL PBS. MTT dye was solubilised with 200 μL per well of DMSO with agitation. Absorbance was read at 540 nm and data analysed using curve-fitting software (GraphPad Prism version 3.00 for Windows, GrapbPad Software, San Diego Calif. USA) to determine IC50 values (concentration of test compound which inhibits cell growth by 50%).

Mia-PaCa-2 = experiment: MTT cytotoxicity assay, Mia-PaCa-2; assay type: cell-based; settings: Homo sapiens, after incubation
Experimental: as §1

Flt-3 = biological target: T2, Flt-3 (Homo sapiens, UniProt P36888); experiment: Flt3 kinase assay; assay type: biochemical; settings: Table 3; read-out: Kinase inhibition Flt3
T2 construct: purchased Upstate, Dundee, UK
T2 sequence (P36888 564-993 limits assumed): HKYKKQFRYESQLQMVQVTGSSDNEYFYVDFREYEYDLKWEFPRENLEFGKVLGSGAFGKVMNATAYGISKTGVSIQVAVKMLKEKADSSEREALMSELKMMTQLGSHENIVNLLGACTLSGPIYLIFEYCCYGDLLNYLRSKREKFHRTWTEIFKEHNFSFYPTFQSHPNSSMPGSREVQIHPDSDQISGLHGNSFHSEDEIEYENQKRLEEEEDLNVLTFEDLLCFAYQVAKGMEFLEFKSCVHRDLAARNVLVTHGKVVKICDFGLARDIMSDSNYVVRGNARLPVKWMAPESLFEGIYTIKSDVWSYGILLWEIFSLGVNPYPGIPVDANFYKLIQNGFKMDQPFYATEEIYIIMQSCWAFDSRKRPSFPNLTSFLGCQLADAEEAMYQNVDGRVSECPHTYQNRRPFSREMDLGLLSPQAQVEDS
Experimental: This was achieved by measurement of incorporation of radioactive phosphate from ATP into myelin basic protein (MBP) substrate, upon phosphorylation by commercially obtained Flt-3 Upstate, Dundee, UK). Assays were performed using 96-well plates and appropriate assay buffers (20 mM Tris, 25 mM β-glycerophosphate, 5 mM EGTA, 1 mM DTT, 1 mM sodium vanadate, pH 7.5), into which were added 5 ng of active enzyme with 0.4 mg/ml substrate (MBP). The reactions were initiated by addition of MgATP mix (15 mM MgCl2+100 μM ATP with 15-25 kBq per well of [γ-^32P]-ATP) and mixtures incubated for 30 min at 30° C. Reactions were stopped by addition of an equal volume of 75 mM aq orthophosphoric acid, followed by filtration through p81 filterplates (Whatman Polyfiltronics, Kent, UK). After washing 4 times with 75 mM aq orthophosphoric acid, plates were dried, scintillant added and incorporated radioactivity measured in a scintillation counter (TopCount, Packard Instruments, Pangbourne, Berks, UK). Compounds for kinase assay were made up as 10 mM stocks in DMSO and diluted into 10% DMSO in assay buffer. Data was analysed using curve-fitting software (XLfit version 4.0.2, IDBS, Guildford, Surrey, UK) to determine IC50 values (concentration of test compound which inhibits kinase activity by 50%).

CDK2/cyclin E = CDK2/cyclin E (Homo sapiens, UniProt P24941); experiment: Kinase assay CDK2/cyclin E; assay type: biochemical; settings: Table 3; read-out: Kinase inhibition CDK2E
Experimental: The compounds from the examples above were investigated for their ability to inhibit the enzymatic activity of various protein kinases. This was achieved by measurement of incorporation of radioactive phosphate from ATP into appropriate polypeptide substrates. Recombinant protein kinases and kinase complexes were produced or obtained commercially. Assays were performed using 96-well plates and appropriate assay buffers (typically 25 mM β-glycerophosphate, 20 mM MOPS, 5 mM EGTA, 1 mM DTT, 1 mM […], pH 7.4), into which were added 2-4 μg of active enzyme with appropriate substrates. The reactions were initiated by addition of Mg/ATP mix (15 mM MgCl2+100 μM ATP with 30-50 kBq per well of [γ-^32P]-ATP) and mixtures incubated as required at 30° C. Reactions were stopped on ice, followed by filtration through p81 filterplates or GF/C filterplates (Whatman Polyfiltronics, Kent, UK). After washing 3 times with 75 mM aq orthophosphoric acid, plates were dried, scintillant added and incorporated radioactivity measured in a scintillation counter (TopCount, Packard Instruments, Pangbourne, Berks, UK). Compounds for kinase assay were made up as 10 mM stocks in DMSO and diluted into 10% DMSO in assay buffer. Data was analysed using curve-fitting software (GraphPad Prism version 3.00 for Windows, GraphPad Software, San Diego Calif. USA) to determine IC50 values (concentration of test compound which inhibits kinase activity by 50%).

PKC-α = PKC-α (Homo sapiens, UniProt P17252); settings: reported in reference [74]; cited from earlier work
PKC-δ = PKC-δ (Homo sapiens, UniProt Q05655); settings: reported in reference [74]; cited from earlier work
Sequence of PKC-δ (Q05655 whole entry): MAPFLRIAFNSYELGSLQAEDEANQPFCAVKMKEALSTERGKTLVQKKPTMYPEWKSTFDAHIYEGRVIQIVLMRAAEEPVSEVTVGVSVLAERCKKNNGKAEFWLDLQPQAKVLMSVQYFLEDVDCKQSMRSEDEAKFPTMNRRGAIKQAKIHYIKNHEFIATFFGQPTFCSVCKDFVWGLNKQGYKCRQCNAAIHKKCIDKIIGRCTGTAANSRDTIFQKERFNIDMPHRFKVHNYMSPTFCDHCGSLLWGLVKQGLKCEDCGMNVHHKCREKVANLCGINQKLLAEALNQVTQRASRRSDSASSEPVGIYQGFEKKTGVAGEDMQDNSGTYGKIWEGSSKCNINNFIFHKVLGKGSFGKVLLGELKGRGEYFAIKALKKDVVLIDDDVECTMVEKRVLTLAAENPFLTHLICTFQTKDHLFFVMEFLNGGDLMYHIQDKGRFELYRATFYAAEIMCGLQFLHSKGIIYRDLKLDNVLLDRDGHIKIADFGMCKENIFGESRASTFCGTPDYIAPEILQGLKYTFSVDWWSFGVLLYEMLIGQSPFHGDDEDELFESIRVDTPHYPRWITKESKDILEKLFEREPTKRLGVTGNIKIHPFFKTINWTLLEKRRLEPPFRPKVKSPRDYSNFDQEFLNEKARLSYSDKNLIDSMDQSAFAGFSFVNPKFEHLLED

EGF-R = EGF-R (Homo sapiens, UniProt P00533); settings: reported in reference [74]; cited from earlier work
Sequence of EGF-R (P00533 25-1210, species assumed): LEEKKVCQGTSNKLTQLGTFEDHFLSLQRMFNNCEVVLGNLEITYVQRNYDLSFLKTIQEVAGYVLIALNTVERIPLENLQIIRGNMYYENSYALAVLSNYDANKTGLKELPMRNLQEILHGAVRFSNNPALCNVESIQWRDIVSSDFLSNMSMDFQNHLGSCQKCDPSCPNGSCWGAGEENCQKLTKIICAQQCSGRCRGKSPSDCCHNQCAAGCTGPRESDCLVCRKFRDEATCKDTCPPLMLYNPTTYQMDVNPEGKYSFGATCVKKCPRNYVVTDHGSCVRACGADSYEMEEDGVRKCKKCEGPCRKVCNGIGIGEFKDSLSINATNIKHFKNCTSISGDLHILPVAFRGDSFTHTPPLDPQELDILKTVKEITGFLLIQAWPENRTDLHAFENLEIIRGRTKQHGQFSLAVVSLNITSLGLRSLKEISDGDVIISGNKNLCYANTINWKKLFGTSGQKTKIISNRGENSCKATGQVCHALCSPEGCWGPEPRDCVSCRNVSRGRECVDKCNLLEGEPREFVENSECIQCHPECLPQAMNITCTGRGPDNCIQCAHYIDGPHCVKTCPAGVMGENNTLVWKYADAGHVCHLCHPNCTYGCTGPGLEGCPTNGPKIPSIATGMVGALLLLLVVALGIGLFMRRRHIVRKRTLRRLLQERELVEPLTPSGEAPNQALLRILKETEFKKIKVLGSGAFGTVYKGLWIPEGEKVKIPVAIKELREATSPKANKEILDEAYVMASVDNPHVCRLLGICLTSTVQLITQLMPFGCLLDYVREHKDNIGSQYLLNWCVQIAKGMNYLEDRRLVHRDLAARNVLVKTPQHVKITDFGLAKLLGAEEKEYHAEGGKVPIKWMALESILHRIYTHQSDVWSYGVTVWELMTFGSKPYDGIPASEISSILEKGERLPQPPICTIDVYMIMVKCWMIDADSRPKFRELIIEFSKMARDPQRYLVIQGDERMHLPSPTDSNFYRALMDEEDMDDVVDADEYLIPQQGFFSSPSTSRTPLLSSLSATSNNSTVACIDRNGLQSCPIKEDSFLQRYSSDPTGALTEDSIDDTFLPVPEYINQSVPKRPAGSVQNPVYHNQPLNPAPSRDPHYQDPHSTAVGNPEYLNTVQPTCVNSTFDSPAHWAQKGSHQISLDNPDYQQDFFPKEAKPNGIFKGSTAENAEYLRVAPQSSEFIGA

Sequence of CDK7/cyclin H (P50613 whole entry): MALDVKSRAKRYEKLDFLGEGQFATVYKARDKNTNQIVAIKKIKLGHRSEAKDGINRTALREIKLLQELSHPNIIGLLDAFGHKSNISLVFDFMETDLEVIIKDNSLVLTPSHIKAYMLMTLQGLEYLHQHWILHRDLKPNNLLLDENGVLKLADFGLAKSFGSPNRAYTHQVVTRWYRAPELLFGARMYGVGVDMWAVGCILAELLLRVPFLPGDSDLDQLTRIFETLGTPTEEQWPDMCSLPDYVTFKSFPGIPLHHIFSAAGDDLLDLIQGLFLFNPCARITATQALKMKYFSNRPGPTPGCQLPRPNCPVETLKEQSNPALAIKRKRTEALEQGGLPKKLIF
Sequence of CDK7/cyclin H (P51946 whole entry partner): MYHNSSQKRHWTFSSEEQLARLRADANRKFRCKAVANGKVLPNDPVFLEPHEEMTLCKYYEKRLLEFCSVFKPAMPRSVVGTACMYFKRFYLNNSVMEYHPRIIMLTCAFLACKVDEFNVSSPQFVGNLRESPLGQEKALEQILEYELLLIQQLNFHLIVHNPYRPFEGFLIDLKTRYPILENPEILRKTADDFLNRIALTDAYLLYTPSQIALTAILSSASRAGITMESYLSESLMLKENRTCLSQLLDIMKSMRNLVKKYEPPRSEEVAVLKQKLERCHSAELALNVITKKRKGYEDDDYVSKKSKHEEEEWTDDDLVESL

SMILES	IC50 (CDK7/cyclin H) [µM]	IC50 (aurora-B) [µM]	IC50 (A2780) [µM]	IC50 (Mia-PaCa-2) [µM]	IC50 (Flt-3) [µM]	IC50 (CDK2/cyclin E) [µM]	kinase inhibition PKC-α (PKC-α)	kinase inhibition PKC-δ (PKC-δ)	kinase inhibition EGF-R (EGF-R)
c1ccc(CN2CCN(c3ccc(Nc4nccc(-c5c[nH]c6ccccc56)n4)cc3)CC2)cc1 [Compound 8, 4-(1H-indol-3-yl)-N-(4-benzylpiperazin-1-ylphenyl)pyrimidin-2-amine]	6.04	1.41	5.43	5.46	0.0788				
Cc1cc(N2CCOCC2)ccc1Nc1nccc(-c2c[nH]c3ccccc23)n1 [Compound 11, 4-(1H-indol-3-yl)-N-(2-methyl-4-morpholin-4-ylphenyl)pyrimidin-2-amine]			4.66	6.82	0.726	0.332			
FC(F)C(F)(F)Oc1cccc(Nc2nccc(-c3c[nH]c4ccccc34)n2)c1 [[4-(1H-indol-3-yl)-pyrimidin-2-yl]-[3-(1,1,2,2-tetrafluoro-ethoxy)-phenyl]-amine]							shown to inhibit	shown to inhibit	shown to inhibit
